{
  "source": "PubChem BioAssay AID2305",
  "about": "(GlaxoSmithKline (GSK), 2010)",
  "data": [
    {"tested_on": "P. falciparum 3D7 growth, pLDH absorbance", "test": "P. falciparum 3D7 growth inhibition, dose response, strain 3D7 (AID 2305)", "units": {"IC50": "nM"}, "values": [
      {"compound": "COc1ccc2ccc(OC)c(CNCCCCCCNCc3c(OC)ccc4ccc(OC)cc34)c2c1", "IC50": 700},
      {"compound": "N/C(=N\\c1cccc(Cc2ccc([N+](=O)[O-])cc2)n1)Nc1ccccc1", "IC50": 950},
      {"compound": "c1ccc(-c2ccc(CNCCCNc3nc4ccccc4[nH]3)cc2)cc1", "IC50": 780},
      {"compound": "N=C(N)c1ccc(-c2cc3ccc(C(=N)N)cc3[nH]2)cc1", "IC50": 60},
      {"compound": "CCOc1ccccc1CCNC(C)Cc1ccc(C(=O)Nc2ccc(CC(C)NCCc3cccc(Cl)c3)cc2)cc1", "note": "(configuration not stated)", "IC50": 540},
      {"compound": "Cc1cccc(-c2ccc(NC(=O)C3CCN(Cc4cccc(O)c4)CC3)cc2)c1", "IC50": 980},
      {"compound": "CC(C)c1ccc(OCC(O)CN(C)C(C)C(O)c2ccccc2)c(Br)c1", "note": "(configuration not stated)", "IC50": 810},
      {"compound": "Cc1nn(C)c(C)c1CN(Cc1nc(-c2cccc(Oc3ccccc3)c2)oc1C)C1CC1", "IC50": 390},
      {"compound": "CCCCNCc1ccc(OCc2cccc(COc3ccc(CNCCCC)cc3I)c2)c(I)c1", "IC50": 1120},
      {"compound": "CCNC(=O)NC1CCN(Cc2c(-c3cccs3)nc3ccccc3c2C(=O)N[C@@H](C)C2CCCCC2)CC1", "IC50": 90},
      {"compound": "CCN(CC)CCCN(C(=O)Nc1ccc(C#N)cc1)c1nc(-c2ccc(F)cc2)cs1", "IC50": 650},
      {"compound": "COc1ccc2cc(-c3nc(-c4c(Cl)cccc4Cl)[nH]c3-c3ccnc(NCCCN4CCCCC4C)c3)ccc2c1", "note": "(configuration not stated)", "IC50": 950},
      {"compound": "CN(C)Cc1ccc(-c2cccc(NC(=O)c3cccc(Cl)c3)c2)cc1", "IC50": 690},
      {"compound": "O=C(/C=C/c1ccc(Cl)c(Cl)c1)NCCCCCN1CCC(NC(=O)c2ccc3ccccc3c2)CC1", "IC50": 1020},
      {"compound": "O=C(NC1CCCc2ccccc21)[C@@H]1CCCN1C(=O)c1ccc(O)c(-c2ccc(Cl)c(Cl)c2)c1", "note": "(some centres not stated)", "IC50": 210},
      {"compound": "COc1cccc(-c2cccc(-c3ccc(NC(=O)c4ccc([N+](=O)[O-])o4)cc3)n2)c1", "IC50": 520},
      {"compound": "Cc1ccc(C(=O)Nc2cccc(CN3CCCN(Cc4ccc(O)cc4)CC3)c2)s1", "IC50": 1000},
      {"compound": "N#Cc1ccc(C=NNc2nc3ccccc3[nH]2)cc1", "IC50": 1000},
      {"compound": "CNc1ccc(CNCc2cccc(-c3ccc(-c4nc5ccccc5[nH]4)cc3)c2)cc1", "IC50": 300},
      {"compound": "CCN(C)c1cc(C(=O)N[C@@H](Cc2ccccc2)[C@H](O)CNC(C)(C)c2cccc(OC)c2)cc(N2CCCC2=O)c1", "IC50": 70},
      {"compound": "O=C(N[C@@H](Cc1ccccc1)C(=O)NC1CCCCC1)c1ccc(O)c(-c2ccc(Cl)c(Cl)c2)c1", "IC50": 230},
      {"compound": "CC(C)(C)c1ccc2nc(-c3ccc(C(=O)NC4CCN(Cc5ccccc5)CC4)s3)[nH]c2c1", "IC50": 360},
      {"compound": "COc1cccc(-c2cc(C(=O)NC3CCC(N4CCC(c5ccccc5C)CC4)CC3)[nH]n2)c1", "note": "(configuration not stated)", "IC50": 1120},
      {"compound": "CCC(C)c1cnc2nc(N)nc(N)c2c1C", "note": "(configuration not stated)", "IC50": 440},
      {"compound": "O=C(Nc1ccc(-c2ccc(-c3nc4ccccc4[nH]3)s2)cc1)Nc1ccc(F)c(F)c1F", "IC50": 190},
      {"compound": "CC[C@H]1CN2CC[C@@H]1C[C@H]2[C@H](O)c1ccnc2ccc(Cl)cc12", "IC50": 120},
      {"compound": "CN(c1ccc(NC(=O)Nc2cc(C(F)(F)F)ccc2F)cc1)c1ccnc(NCCN2CCCC2)n1", "IC50": 1150},
      {"compound": "N#CN1CC[C@@H](NS(=O)(=O)Cc2ccc(Cl)c(Cl)c2)C1", "IC50": 530},
      {"compound": "FC(F)(F)c1ccc(N2CCCN(Cc3cccc(-c4ccccc4CNCc4ccc5c(c4)OCO5)c3)CC2)nc1", "IC50": 1190},
      {"compound": "Cc1cccc2[nH]c(-c3cccc(-c4ccc(NC(=O)Nc5ccsc5)cc4)c3)nc12", "IC50": 120},
      {"compound": "CN(C)CCOc1ccc(-c2cc(-c3ccc(Cl)c(O)c3)c(-c3ccncc3)o2)cc1", "IC50": 1450},
      {"compound": "O=C(NC1CCC(CN2CCC(c3c[nH]c4ccccc34)CC2)CC1)c1ccc(-c2ccccc2[N+](=O)[O-])o1", "note": "(configuration not stated)", "IC50": 770},
      {"compound": "c1ccc(CNCc2cccc(-c3csc(-c4nc5ccccc5[nH]4)c3)c2)cc1", "IC50": 460},
      {"compound": "CCCC(CNCc1cccc(OCC)c1)CNc1cc(=O)c2ccccc2[nH]1", "note": "(configuration not stated)", "IC50": 850},
      {"compound": "Cc1nn(-c2ccccc2)c2c1C(c1ccc(C(C)C)cc1)N1C(=N2)N(Cc2ccccc2)c2ccccc21", "note": "(configuration not stated)", "IC50": 780},
      {"compound": "CC(C)(C)C1CC(=O)C[C@@H]2C(=O)N(C3CCCCC3)C(=O)[C@H]12", "note": "(some centres not stated)", "IC50": 420},
      {"compound": "CC(C)c1cc(N)c2cc(NC(=O)COCC(=O)Nc3ccc4nc(C(C)C)cc(N)c4c3)ccc2n1", "IC50": 220},
      {"compound": "O=C(Cc1ccc(Cl)cc1)NC1CCN(c2ccnc3cc(Cl)ccc23)C1", "note": "(configuration not stated)", "IC50": 230},
      {"compound": "Oc1c(Cl)cc(-c2ccccc2)cc1CNC1CCCCC1", "IC50": 750},
      {"compound": "O=C(NC1CCC(N2CCC(Cc3ccc(F)cc3)CC2)CC1)c1cc2ccccc2[nH]1", "note": "(configuration not stated)", "IC50": 870},
      {"compound": "O=C(Nc1ccc(Oc2ccccc2)cc1)N[C@@H](Cc1ccc(O)cc1)C(=O)NC1CCN(Cc2ccc(O)c([N+](=O)[O-])c2)C1", "note": "(some centres not stated)", "IC50": 1510},
      {"compound": "COc1cc(C(C)C)ccc1C1CCN(CCCCNC(=O)c2ccc(NC(=O)c3ccc(Cl)cc3)cc2)CC1", "IC50": 450},
      {"compound": "CCc1ccc(-c2cnc(N)c3cc(-c4ccnc(N)n4)ccc23)cc1", "IC50": 1350},
      {"compound": "O=C(NCCCN1CCC(NC(=O)c2ccc(-c3cccnc3)cc2)CC1)c1ccc(Cl)c(Cl)c1", "IC50": 850},
      {"compound": "Nc1cccc(CNCc2cccc(-c3ccc(-c4nc5ccc(C(F)(F)F)cc5[nH]4)cc3)c2)c1", "IC50": 360},
      {"compound": "COc1ccc2nccc([C@@H](O)CN3CCC(NCCOc4cccc(C(F)(F)F)c4)CC3)c2c1", "IC50": 160},
      {"compound": "CC(C)[C@@H]1c2ccc(O)cc2C[C@H]2C(=O)N(C3CCCCC3)C(=O)N21", "IC50": 880},
      {"compound": "Clc1ccc(NC(=NCCCCCCCN=C(Nc2ccc(Cl)cc2)Nc2ccc(Cl)cc2)Nc2ccc(Cl)cc2)cc1", "IC50": 320},
      {"compound": "COc1ccc(-n2cc(CNCCCn3ccnc3)c(-c3cccc(F)c3)n2)cc1", "IC50": 1060},
      {"compound": "Cc1c(Cn2ncc(N3CCC(N)CC3)c(Cl)c2=O)cccc1NC(=O)Nc1ccc(-c2ccccc2)cc1", "IC50": 700},
      {"compound": "CCNc1cc(C(=O)N[C@@H](Cc2ccccc2)[C@H](O)CNCc2cccc(OC)c2C)cc(N2CCCCS2(=O)=O)c1", "IC50": 520},
      {"compound": "Cc1cc(Nc2ccc(Oc3ccc(Cl)cc3)cc2)nc(N)n1", "IC50": 620},
      {"compound": "CCNC(C)(C)CN(Cc1ccc(-c2ccc(C(F)(F)F)cc2)cc1)C(=O)Cn1c(CCc2cccc(F)c2F)nc(=O)c2ccccc21", "IC50": 810},
      {"compound": "C[C@H](Cc1ccc(OCCCCCOc2ccc(C[C@@H](C)NC[C@H](O)c3cccc(Cl)c3)cc2)cc1)NC[C@H](O)c1cccc(Cl)c1", "IC50": 190},
      {"compound": "COc1ccccc1-c1csc(C(=O)NCC2CCN(Cc3ccc(C(C)C)cc3)C2)c1", "note": "(configuration not stated)", "IC50": 1350},
      {"compound": "COc1ccc2c(c1C1CCN(CCCCNC(=O)c3ccc(NC(=O)c4ccc(Cl)cc4)cc3)CC1)CCCC2", "IC50": 340},
      {"compound": "N#Cc1cc(C(=O)c2cc(Cl)ccc2O)cn(-c2cc(Cl)cc(Cl)c2)c1=O", "IC50": 850},
      {"compound": "CC1(CCc2ccccc2)N=C(N)N(Cc2ccccc2)C(=O)C1c1ccc(Cl)c(Cl)c1", "note": "(configuration not stated)", "IC50": 810},
      {"compound": "COc1ccc2nc(-c3ccccc3)cc(NCCN(C)C)c2c1", "IC50": 730},
      {"compound": "O=C(NCc1cccc2ccccc12)c1ccc(CNC2CCN(Cc3ccccc3)CC2)cc1", "IC50": 840},
      {"compound": "O=C(Nc1ccc([N+](=O)[O-])cc1)c1nn(-c2ccccc2)cc1N=Cc1cccc(O)c1", "IC50": 890},
      {"compound": "COc1ccc(C(C(=O)NC2CCN(C[C@H](O)c3ccnc4ccc(OC)cc34)CC2)N2CCN(c3ccc(F)cc3)CC2)cc1", "note": "(some centres not stated)", "IC50": 210},
      {"compound": "CC(=O)N1CCN(c2ccc(NC(=O)c3oc(-c4ccccc4)nc3C(F)(F)F)cn2)CC1", "IC50": 840},
      {"compound": "CC(=O)Nc1ncc(C(=O)Nc2ccc(-c3cccc(-c4nc5ccc(F)cc5[nH]4)c3)cc2)s1", "IC50": 350},
      {"compound": "CN(C)c1ccc(CN2CCCC(CNC(=O)c3ccc(-c4cccc(C(F)(F)F)c4)s3)C2)cc1", "note": "(configuration not stated)", "IC50": 1200},
      {"compound": "CCCCN(CCCC)CC(O)c1cc(-c2ccc(Cl)cc2)nc2c(Cl)cc(Cl)cc12", "note": "(configuration not stated)", "IC50": 30},
      {"compound": "NCCNS(=O)(=O)c1ccc(-c2ccnc3[nH]c(-c4ccncc4)cc23)cc1", "IC50": 840}
    ]}
  ]
}
